Reference: ChEMBL document CHEMBL2401670, “Synthesis and biological evaluation of rhodanine derivatives bearing a quinoline moiety as potent antimicrobial agents” (Bioorg Med Chem Lett, 2013)
≈ marks a conversion by molar mass, not a printed value.

test system: Staphylococcus aureus; test: Antibacterial activity against quinolone-resistant Staphylococcus aureus CCARM 3519 after 24 hrs by broth microdilution method; type: functional; details: CCARM 3519, 24 h

Row | SMILES | MIC
1 | Cc1onc(-c2ccccc2)c1C(=O)N[C@@H]1C(=O)N2[C@@H]1SC(C)(C)[C@@H]2C(=O)O [OXACILLIN] | 1 µg/mL (≈ 2.49 µM)
2 | CCn1cc(C(=O)O)c(=O)c2cc(F)c(N3CCNCC3)cc21 [NORFLOXACIN] | > 64 µg/mL
3 | O=C(O)[C@H](Cc1ccccc1)N1C(=O)/C(=C/c2cc3cc(OCc4ccccc4Cl)ccc3nc2Cl)SC1=S | 2 µg/mL (≈ 3.36 µM)
4 | O=C(O)[C@H](Cc1ccccc1)N1C(=O)/C(=C/c2cc3cc(OCc4ccccc4F)ccc3nc2Cl)SC1=S | 2 µg/mL (≈ 3.45 µM)
5 | CC(C)C[C@@H](C(=O)O)N1C(=O)/C(=C/c2cc3cc(OCc4cccc(Cl)c4)ccc3nc2Cl)SC1=S | 2 µg/mL (≈ 3.56 µM)
6 | CCC(C)[C@@H](C(=O)O)N1C(=O)/C(=C/c2cc3cc(OCc4ccc(Cl)cc4)ccc3nc2Cl)SC1=S (stereo partly drawn) | 2 µg/mL (≈ 3.56 µM)

test system: Staphylococcus aureus; test: Antibacterial activity against quinolone-resistant Staphylococcus aureus CCARM 3505 after 24 hrs by broth microdilution method; type: functional; details: CCARM 3505, 24 h

Row | SMILES | MIC
7 | Cc1onc(-c2ccccc2)c1C(=O)N[C@@H]1C(=O)N2[C@@H]1SC(C)(C)[C@@H]2C(=O)O [OXACILLIN] | 1 µg/mL (≈ 2.49 µM)
8 | CCn1cc(C(=O)O)c(=O)c2cc(F)c(N3CCNCC3)cc21 [NORFLOXACIN] | > 64 µg/mL
9 | O=C(O)[C@H](Cc1ccccc1)N1C(=O)/C(=C/c2cc3cc(OCc4ccccc4Cl)ccc3nc2Cl)SC1=S | 2 µg/mL (≈ 3.36 µM)
10 | O=C(O)[C@H](Cc1ccccc1)N1C(=O)/C(=C/c2cc3cc(OCc4ccccc4F)ccc3nc2Cl)SC1=S | 2 µg/mL (≈ 3.45 µM)
11 | CC(C)C[C@@H](C(=O)O)N1C(=O)/C(=C/c2cc3cc(OCc4cccc(Cl)c4)ccc3nc2Cl)SC1=S | 2 µg/mL (≈ 3.56 µM)
12 | CCC(C)[C@@H](C(=O)O)N1C(=O)/C(=C/c2cc3cc(OCc4ccc(Cl)cc4)ccc3nc2Cl)SC1=S (stereo partly drawn) | 2 µg/mL (≈ 3.56 µM)

test system: Staphylococcus aureus; test: Antibacterial activity against methicillin-resistant Staphylococcus aureus CCARM 3506 after 24 hrs by broth microdilution method; type: functional; details: CCARM 3506, 24 h

Row | SMILES | MIC
13 | Cc1onc(-c2ccccc2)c1C(=O)N[C@@H]1C(=O)N2[C@@H]1SC(C)(C)[C@@H]2C(=O)O [OXACILLIN] | > 64 µg/mL
14 | CCn1cc(C(=O)O)c(=O)c2cc(F)c(N3CCNCC3)cc21 [NORFLOXACIN] | 4 µg/mL (≈ 12.5 µM)
15 | O=C(O)[C@H](Cc1ccccc1)N1C(=O)/C(=C/c2cc3cc(OCc4ccccc4Cl)ccc3nc2Cl)SC1=S | 2 µg/mL (≈ 3.36 µM)
16 | O=C(O)[C@H](Cc1ccccc1)N1C(=O)/C(=C/c2cc3cc(OCc4ccccc4F)ccc3nc2Cl)SC1=S | 2 µg/mL (≈ 3.45 µM)
17 | CC(C)C[C@@H](C(=O)O)N1C(=O)/C(=C/c2cc3cc(OCc4cccc(Cl)c4)ccc3nc2Cl)SC1=S | 2 µg/mL (≈ 3.56 µM)
18 | CCC(C)[C@@H](C(=O)O)N1C(=O)/C(=C/c2cc3cc(OCc4ccc(Cl)cc4)ccc3nc2Cl)SC1=S (stereo partly drawn) | 1 µg/mL (≈ 1.78 µM)

test system: Staphylococcus aureus; test: Antibacterial activity against methicillin-resistant Staphylococcus aureus CCARM 3167 after 24 hrs by broth microdilution method; type: functional; details: CCARM 3167, 24 h

Row | SMILES | MIC
19 | Cc1onc(-c2ccccc2)c1C(=O)N[C@@H]1C(=O)N2[C@@H]1SC(C)(C)[C@@H]2C(=O)O [OXACILLIN] | > 64 µg/mL
20 | CCn1cc(C(=O)O)c(=O)c2cc(F)c(N3CCNCC3)cc21 [NORFLOXACIN] | 8 µg/mL (≈ 25.1 µM)
21 | O=C(O)[C@H](Cc1ccccc1)N1C(=O)/C(=C/c2cc3cc(OCc4ccccc4Cl)ccc3nc2Cl)SC1=S | 2 µg/mL (≈ 3.36 µM)
22 | O=C(O)[C@H](Cc1ccccc1)N1C(=O)/C(=C/c2cc3cc(OCc4ccccc4F)ccc3nc2Cl)SC1=S | 1 µg/mL (≈ 1.73 µM)
23 | CC(C)C[C@@H](C(=O)O)N1C(=O)/C(=C/c2cc3cc(OCc4cccc(Cl)c4)ccc3nc2Cl)SC1=S | 1 µg/mL (≈ 1.78 µM)
24 | CCC(C)[C@@H](C(=O)O)N1C(=O)/C(=C/c2cc3cc(OCc4ccc(Cl)cc4)ccc3nc2Cl)SC1=S (stereo partly drawn) | 1 µg/mL (≈ 1.78 µM)

test system: Escherichia coli; test: Antibacterial activity against Escherichia coli CCARM 1356 after 24 hrs by broth microdilution method; type: functional; details: CCARM 1356, 24 h

Row | SMILES | MIC
25 | Cc1onc(-c2ccccc2)c1C(=O)N[C@@H]1C(=O)N2[C@@H]1SC(C)(C)[C@@H]2C(=O)O [OXACILLIN] | > 64 µg/mL
26 | CCn1cc(C(=O)O)c(=O)c2cc(F)c(N3CCNCC3)cc21 [NORFLOXACIN] | 16 µg/mL (≈ 50.1 µM)
27 | O=C(O)[C@H](Cc1ccccc1)N1C(=O)/C(=C/c2cc3cc(OCc4ccccc4Cl)ccc3nc2Cl)SC1=S | > 64 µg/mL
28 | O=C(O)[C@H](Cc1ccccc1)N1C(=O)/C(=C/c2cc3cc(OCc4ccccc4F)ccc3nc2Cl)SC1=S | > 64 µg/mL
29 | CC(C)C[C@@H](C(=O)O)N1C(=O)/C(=C/c2cc3cc(OCc4cccc(Cl)c4)ccc3nc2Cl)SC1=S | > 64 µg/mL
30 | CCC(C)[C@@H](C(=O)O)N1C(=O)/C(=C/c2cc3cc(OCc4ccc(Cl)cc4)ccc3nc2Cl)SC1=S (stereo partly drawn) | > 64 µg/mL

test system: Staphylococcus aureus; test: Antibacterial activity against Staphylococcus aureus KCTC 503 after 24 hrs by broth microdilution method; type: functional; details: KCTC 503, 24 h

Row | SMILES | MIC
31 | Cc1onc(-c2ccccc2)c1C(=O)N[C@@H]1C(=O)N2[C@@H]1SC(C)(C)[C@@H]2C(=O)O [OXACILLIN] | 1 µg/mL (≈ 2.49 µM)
32 | CCn1cc(C(=O)O)c(=O)c2cc(F)c(N3CCNCC3)cc21 [NORFLOXACIN] | 2 µg/mL (≈ 6.26 µM)
33 | O=C(O)[C@H](Cc1ccccc1)N1C(=O)/C(=C/c2cc3cc(OCc4ccccc4Cl)ccc3nc2Cl)SC1=S | 8 µg/mL (≈ 13.4 µM)
34 | O=C(O)[C@H](Cc1ccccc1)N1C(=O)/C(=C/c2cc3cc(OCc4ccccc4F)ccc3nc2Cl)SC1=S | 8 µg/mL (≈ 13.8 µM)
35 | CC(C)C[C@@H](C(=O)O)N1C(=O)/C(=C/c2cc3cc(OCc4cccc(Cl)c4)ccc3nc2Cl)SC1=S | 64 µg/mL (≈ 114 µM)
36 | CCC(C)[C@@H](C(=O)O)N1C(=O)/C(=C/c2cc3cc(OCc4ccc(Cl)cc4)ccc3nc2Cl)SC1=S (stereo partly drawn) | 4 µg/mL (≈ 7.12 µM)

test system: Staphylococcus aureus; test: Antibacterial activity against Staphylococcus aureus KCTC 209 after 24 hrs by broth microdilution method; type: functional; details: KCTC 209, 24 h

Row | SMILES | MIC
37 | Cc1onc(-c2ccccc2)c1C(=O)N[C@@H]1C(=O)N2[C@@H]1SC(C)(C)[C@@H]2C(=O)O [OXACILLIN] | 1 µg/mL (≈ 2.49 µM)
38 | CCn1cc(C(=O)O)c(=O)c2cc(F)c(N3CCNCC3)cc21 [NORFLOXACIN] | 2 µg/mL (≈ 6.26 µM)
39 | O=C(O)[C@H](Cc1ccccc1)N1C(=O)/C(=C/c2cc3cc(OCc4ccccc4Cl)ccc3nc2Cl)SC1=S | 64 µg/mL (≈ 107 µM)
40 | O=C(O)[C@H](Cc1ccccc1)N1C(=O)/C(=C/c2cc3cc(OCc4ccccc4F)ccc3nc2Cl)SC1=S | 64 µg/mL (≈ 111 µM)
41 | CC(C)C[C@@H](C(=O)O)N1C(=O)/C(=C/c2cc3cc(OCc4cccc(Cl)c4)ccc3nc2Cl)SC1=S | 4 µg/mL (≈ 7.12 µM)
42 | CCC(C)[C@@H](C(=O)O)N1C(=O)/C(=C/c2cc3cc(OCc4ccc(Cl)cc4)ccc3nc2Cl)SC1=S (stereo partly drawn) | 8 µg/mL (≈ 14.2 µM)

test system: Staphylococcus aureus; test: Antibacterial activity against Staphylococcus aureus RN4220 after 24 hrs by broth microdilution method; type: functional; details: RN4220, 24 h

Row | SMILES | MIC
43 | Cc1onc(-c2ccccc2)c1C(=O)N[C@@H]1C(=O)N2[C@@H]1SC(C)(C)[C@@H]2C(=O)O [OXACILLIN] | 1 µg/mL (≈ 2.49 µM)
44 | CCn1cc(C(=O)O)c(=O)c2cc(F)c(N3CCNCC3)cc21 [NORFLOXACIN] | 2 µg/mL (≈ 6.26 µM)
45 | O=C(O)[C@H](Cc1ccccc1)N1C(=O)/C(=C/c2cc3cc(OCc4ccccc4Cl)ccc3nc2Cl)SC1=S | 4 µg/mL (≈ 6.72 µM)
46 | O=C(O)[C@H](Cc1ccccc1)N1C(=O)/C(=C/c2cc3cc(OCc4ccccc4F)ccc3nc2Cl)SC1=S | 4 µg/mL (≈ 6.91 µM)
47 | CC(C)C[C@@H](C(=O)O)N1C(=O)/C(=C/c2cc3cc(OCc4cccc(Cl)c4)ccc3nc2Cl)SC1=S | 2 µg/mL (≈ 3.56 µM)
48 | CCC(C)[C@@H](C(=O)O)N1C(=O)/C(=C/c2cc3cc(OCc4ccc(Cl)cc4)ccc3nc2Cl)SC1=S (stereo partly drawn) | 2 µg/mL (≈ 3.56 µM)
